Experiment: recombinant barcode read abundance after kanamycin selection (control-corrected) (log10(CPM+1)); higher = more efficient recombination; sequences stand for … in AGTGCAGAGAAAATCGGCCAGTTTTCTCTGCCTGCAGTCCGCATGCCGT…AGATTTATGCAGCGGACTGCCTTTCTCCCAAAGTGATAAACCGGACAGTATCATGGACCGGTTTTCCCGGTAATCCGTATTTGCAAGGTTGGTTTCACT; site = the 11-nt target
Procedure: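 Pooled E. coli target-specificity screen for the IS621 bridge recombinase. Each library plasmid pairs an 11-nt target (CT core) with a bridge RNA whose target-binding loop (9-nt LTG + 4-nt RTG) is reprogrammed; the rest of the 177-nt WT IS621 bridge RNA scaffold is fixed. The plasmid is co-electroporated with a WT donor plasmid; recombinase is induced with 0.1 mM IPTG and recombinants are selected on kanamycin. Recombinant barcodes are sequenced, converted to CPM, averaged over two biological replicates and corrected by the unselected control CPM. Molecule = full bridge RNA written as DNA: LTG = specificity nt 1-9, RTG = reverse complement of specificity nt 8-11, in the WT scaffold.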
In the case of “AATAGGCCTTGGGTTCTAACCTGTTGCGT (site AATAGGCCTAC)”, the “recombinant barcode read abundance (log10)” value is reported as 1.6. In the case of “AATAGGCCTTGGGTTCTAACCTGTTGCGT (site AATCGGCCTAC)”, the “recombinant barcode read abundance (log10)” value is reported as 0.163. For “AATAGGCCTTGGGTTCTAACCTGTTGCGT (site AATGGGCCTAC)”, the “recombinant barcode read abundance (log10)” value was 0.23. For “AATAGGCCTTGGGTTCTAACCTGTTGCGT (site AATTGGCCTAC)”, the “recombinant barcode read abundance (log10)” value was 0.0726. In the case of “AATCGCACTTGGGTTCTAACCTGTTGCCT (site AATACCACTAG)”, the “recombinant barcode read abundance (log10)” value is reported as 0. For “AATCGCACTTGGGTTCTAACCTGTTGCCT (site AATCGCACTAG)”, the “recombinant barcode read abundance (log10)” value was 0.216. With “AATGCTCCTTGGGTTCTAACCTGTTGCAT (site AATGCTCCTAA)” the “recombinant barcode read abundance (log10)” value was 0.0259. With “AATGCTCCTTGGGTTCTAACCTGTTGCAT (site AATGCTCCTAC)” the “recombinant barcode read abundance (log10)” value was 0.532. In the case of “AATGCTCCTTGGGTTCTAACCTGTTGCAT (site AATGCTCCTAG)”, the “recombinant barcode read abundance (log10)” value is reported as 0.248. In the case of “AATGCTCCTTGGGTTCTAACCTGTTGCAT (site AATGCTCCTAT)”, the “recombinant barcode read abundance (log10)” value is reported as 0.533. In the case of “AATGCTCCTTGGGTTCTAACCTGTTGCCT (site AATGCTCCTAA)”, the “recombinant barcode read abundance (log10)” value is reported as 0.0483. For “AATGCTCCTTGGGTTCTAACCTGTTGCCT (site AATGCTCCTAC)”, the “recombinant barcode read abundance (log10)” value was 0.158. In the case of “AATGCTCCTTGGGTTCTAACCTGTTGCCT (site AATGCTCCTAG)”, the “recombinant barcode read abundance (log10)” value is reported as 0.561. With “AATGCTCCTTGGGTTCTAACCTGTTGCCT (site AATGCTCCTAT)” the “recombinant barcode read abundance (log10)” value was 0.0129. For “AATGGGCCTTGGGTTCTAACCTGTTGCGT (site AATAGGCCTAC)”, the “recombinant barcode read abundance (log10)” value was 1.71. With “AATGGGCCTTGGGTTCTAACCTGTTGCGT (site AATCGGCCTAC)” the “recombinant barcode read abundance (log10)” value was 0.048. With “AATGGGCCTTGGGTTCTAACCTGTTGCGT (site AATGGGCCTAC)” the “recombinant barcode read abundance (log10)” value was 2.4. With “AATGGGCCTTGGGTTCTAACCTGTTGCGT (site AATTGGCCTAC)” the “recombinant barcode read abundance (log10)” value was 0.765. In the case of “AATGGGGCTTGGGTTCTAACCTGTTGCAG (site AATGGGGCTCT)”, the “recombinant barcode read abundance (log10)” value is reported as 2.51. For “AATGGGGCTTGGGTTCTAACCTGTTGCAG (site CGGCCACCTAA)”, the “recombinant barcode read abundance (log10)” value was 0.185. For “AATGGGTCTTGGGTTCTAACCTGTTGCTT (site AATGGGTCTAA)”, the “recombinant barcode read abundance (log10)” value was 1.71. With “AATGGGTCTTGGGTTCTAACCTGTTGCTT (site CCACTAGCTCT)” the “recombinant barcode read abundance (log10)” value was 0.0323. In the case of “AATTGGCCTTGGGTTCTAACCTGTTGCGT (site AATAGGCCTAC)”, the “recombinant barcode read abundance (log10)” value is reported as 0.425. With “AATTGGCCTTGGGTTCTAACCTGTTGCGT (site AATCGGCCTAC)” the “recombinant barcode read abundance (log10)” value was 0.976. For “AATTGGCCTTGGGTTCTAACCTGTTGCGT (site AATGGGCCTAC)”, the “recombinant barcode read abundance (log10)” value was 0.376. For “AATTGGCCTTGGGTTCTAACCTGTTGCGT (site AATTGGCCTAC)”, the “recombinant barcode read abundance (log10)” value was 0.673. In the case of “ACAAACCCTTGGGTTCTAACCTGTTGCCT (site ACAAAACCTAG)”, the “recombinant barcode read abundance (log10)” value is reported as 0.214. For “ACAAACCCTTGGGTTCTAACCTGTTGCCT (site ACAAACCCTAG)”, the “recombinant barcode read abundance (log10)” value was 0.812. In the case of “ACAAACCCTTGGGTTCTAACCTGTTGCCT (site ACAAAGCCTAG)”, the “recombinant barcode read abundance (log10)” value is reported as 0.159. With “ACAAACCCTTGGGTTCTAACCTGTTGCCT (site ACAAATCCTAG)” the “recombinant barcode read abundance (log10)” value was 0.0456. With “ACAAAGCCTTGGGTTCTAACCTGTTGCCT (site ACAAAACCTAG)” the “recombinant barcode read abundance (log10)” value was 0.49. With “ACAAAGCCTTGGGTTCTAACCTGTTGCCT (site ACAAACCCTAG)” the “recombinant barcode read abundance (log10)” value was 0.0556. With “ACAAAGCCTTGGGTTCTAACCTGTTGCCT (site ACAAAGCCTAG)” the “recombinant barcode read abundance (log10)” value was 0.85. With “ACAAAGCCTTGGGTTCTAACCTGTTGCCT (site ACAAATCCTAG)” the “recombinant barcode read abundance (log10)” value was 0.0552. With “ACAAATACTTGGGTTCTAACCTGTTGCGG (site ACAAATACTCC)” the “recombinant barcode read abundance (log10)” value was 0.905. In the case of “ACAAATACTTGGGTTCTAACCTGTTGCGG (site CGTTCACCTAT)”, the “recombinant barcode read abundance (log10)” value is reported as 0.11. For “ACAAGCCCTTGGGTTCTAACCTGTTGCCT (site AAAAGCCCTAG)”, the “recombinant barcode read abundance (log10)” value was 0.189. With “ACAAGCCCTTGGGTTCTAACCTGTTGCCT (site ACAAGCCCTAG)” the “recombinant barcode read abundance (log10)” value was 0.643. For “ACAAGCCCTTGGGTTCTAACCTGTTGCCT (site AGAAGCCCTAG)”, the “recombinant barcode read abundance (log10)” value was 0.0546. With “ACAAGCCCTTGGGTTCTAACCTGTTGCCT (site ATAAGCCCTAG)” the “recombinant barcode read abundance (log10)” value was 0.0711. In the case of “ACAAGGCCTTGGGTTCTAACCTGTTGCCT (site ACAAGGCCTAG)”, the “recombinant barcode read abundance (log10)” value is reported as 0.16. With “ACAAGGCCTTGGGTTCTAACCTGTTGCCT (site CCAAGGCCTAG)” the “recombinant barcode read abundance (log10)” value was 0.784. For “ACAAGGCCTTGGGTTCTAACCTGTTGCCT (site GCAAGGCCTAG)”, the “recombinant barcode read abundance (log10)” value was 0.126. In the case of “ACAAGGCCTTGGGTTCTAACCTGTTGCCT (site TCAAGGCCTAG)”, the “recombinant barcode read abundance (log10)” value is reported as 0.0644. For “ACAATAGCTTGGGTTCTAACCTGTTGCCT (site ACAATACCTCG)”, the “recombinant barcode read abundance (log10)” value was 0.0732. With “ACAATAGCTTGGGTTCTAACCTGTTGCCT (site ACAATAGCTAG)” the “recombinant barcode read abundance (log10)” value was 1.64. For “ACACAGACTTGGGTTCTAACCTGTTGCGC (site ACAAAGACTGC)”, the “recombinant barcode read abundance (log10)” value was 0.174. For “ACACAGACTTGGGTTCTAACCTGTTGCGC (site ACACAGACTGC)”, the “recombinant barcode read abundance (log10)” value was 1.08. For “ACACAGACTTGGGTTCTAACCTGTTGCGC (site ACAGAGACTGC)”, the “recombinant barcode read abundance (log10)” value was 0.114. In the case of “ACACAGACTTGGGTTCTAACCTGTTGCGC (site ACATAGACTGC)”, the “recombinant barcode read abundance (log10)” value is reported as 0.00702. In the case of “ACACCCTCTTGGGTTCTAACCTGTTGCTT (site ACACCCTCTAA)”, the “recombinant barcode read abundance (log10)” value is reported as 2.5. In the case of “ACACCCTCTTGGGTTCTAACCTGTTGCTT (site CGACCCTCTAA)”, the “recombinant barcode read abundance (log10)” value is reported as 0.208. With “ACAGAATCTTGGGTTCTAACCTGTTGCCT (site ACAGAATCTAG)” the “recombinant barcode read abundance (log10)” value was 1.69. In the case of “ACAGAATCTTGGGTTCTAACCTGTTGCCT (site ACAGGATCTAA)”, the “recombinant barcode read abundance (log10)” value is reported as 0.0318. For “ACAGACGCTTGGGTTCTAACCTGTTGCCT (site ACAGACGCTAG)”, the “recombinant barcode read abundance (log10)” value was 0.721. In the case of “ACAGACGCTTGGGTTCTAACCTGTTGCCT (site ACAGCCGCTAG)”, the “recombinant barcode read abundance (log10)” value is reported as 0.151. For “ACAGACGCTTGGGTTCTAACCTGTTGCCT (site ACAGGCGCTAG)”, the “recombinant barcode read abundance (log10)” value was 0.163. In the case of “ACAGACGCTTGGGTTCTAACCTGTTGCCT (site ACAGTCGCTAG)”, the “recombinant barcode read abundance (log10)” value is reported as 0.0906. With “ACAGAGACTTGGGTTCTAACCTGTTGCTA (site ACAGAGACTGT)” the “recombinant barcode read abundance (log10)” value was 0.121. For “ACAGAGACTTGGGTTCTAACCTGTTGCTA (site ACAGAGACTTA)”, the “recombinant barcode read abundance (log10)” value was 1.35. In the case of “ACAGTAGCTTGGGTTCTAACCTGTTGCGG (site ACAGTAGCTCC)”, the “recombinant barcode read abundance (log10)” value is reported as 1.81. In the case of “ACAGTAGCTTGGGTTCTAACCTGTTGCGG (site ACAGTAGCTCG)”, the “recombinant barcode read abundance (log10)” value is reported as 0.248. In the case of “ACAGTGACTTGGGTTCTAACCTGTTGCCT (site ACAATGACTAG)”, the “recombinant barcode read abundance (log10)” value is reported as 1.23. With “ACAGTGACTTGGGTTCTAACCTGTTGCCT (site ACAGTGACTAG)” the “recombinant barcode read abundance (log10)” value was 2.49. In the case of “ACAGTGGCTTGGGTTCTAACCTGTTGCGG (site ACAGTGGCTCC)”, the “recombinant barcode read abundance (log10)” value is reported as 1.53. For “ACAGTGGCTTGGGTTCTAACCTGTTGCGG (site CTTCGCCCTAA)”, the “recombinant barcode read abundance (log10)” value was 0.0955. In the case of “ACAGTGTCTTGGGTTCTAACCTGTTGCGG (site ACAATGTCTCC)”, the “recombinant barcode read abundance (log10)” value is reported as 1.37. With “ACAGTGTCTTGGGTTCTAACCTGTTGCGG (site ACACTGTCTCC)” the “recombinant barcode read abundance (log10)” value was 0.0611. With “ACAGTGTCTTGGGTTCTAACCTGTTGCGG (site ACAGTGTCTCC)” the “recombinant barcode read abundance (log10)” value was 2.77. In the case of “ACAGTGTCTTGGGTTCTAACCTGTTGCGG (site ACATTGTCTCC)”, the “recombinant barcode read abundance (log10)” value is reported as 0.324. In the case of “ACATAAGCTTGGGTTCTAACCTGTTGCTA (site ACATAAGCTTA)”, the “recombinant barcode read abundance (log10)” value is reported as 1.11. In the case of “ACATAAGCTTGGGTTCTAACCTGTTGCTA (site GGCGGCTCTAG)”, the “recombinant barcode read abundance (log10)” value is reported as 0.18. With “ACATAGACTTGGGTTCTAACCTGTTGCGC (site ACAAAGACTGC)” the “recombinant barcode read abundance (log10)” value was 0.084. With “ACATAGACTTGGGTTCTAACCTGTTGCGC (site ACACAGACTGC)” the “recombinant barcode read abundance (log10)” value was 0.858. In the case of “ACATAGACTTGGGTTCTAACCTGTTGCGC (site ACAGAGACTGC)”, the “recombinant barcode read abundance (log10)” value is reported as 0.168. For “ACATAGACTTGGGTTCTAACCTGTTGCGC (site ACATAGACTGC)”, the “recombinant barcode read abundance (log10)” value was 1.35. With “ACATAGTCTTGGGTTCTAACCTGTTGCAG (site ACATAGTCTCT)” the “recombinant barcode read abundance (log10)” value was 1.01. For “ACATAGTCTTGGGTTCTAACCTGTTGCAG (site CCTTAGTCTCT)”, the “recombinant barcode read abundance (log10)” value was 0.0322. In the case of “ACATAGTCTTGGGTTCTAACCTGTTGCTG (site ACATAGTCTCA)”, the “recombinant barcode read abundance (log10)” value is reported as 0.71. In the case of “ACATAGTCTTGGGTTCTAACCTGTTGCTG (site ACTTAGTCTTA)”, the “recombinant barcode read abundance (log10)” value is reported as 0.0401. In the case of “ACATCTCCTTGGGTTCTAACCTGTTGCCT (site ACATCTCCTAG)”, the “recombinant barcode read abundance (log10)” value is reported as 0.503. With “ACATCTCCTTGGGTTCTAACCTGTTGCCT (site CCATCTCCTAG)” the “recombinant barcode read abundance (log10)” value was 0.239.

— the supplement of paper PMC11208160
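Further: IS621 recombinase and bridge RNA in Escherichia coli cells.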
